Test results taken from US8987312B2, “Alpha-keto heterocycles as FAAH inhibitors” (The Scripps Research Institute, priority 2008, dated 2015).
Where two headings read alike, the source gives them in different places.

Legend:
Assay type in all cases: biochemical
[1] = biological target: T1, triacylglycerol hydrolase (TGH) (Mus musculus, UniProt Q8VCT4); assay: Activity based protein profiling (proteome-wide selectivity screening, FP-Rh), TGH; conditions: Table 4; for IC50: activity based protein profiling; for TGH selectivity (value in parentheses): ratio TGH IC50 / FAAH IC50 (fold selectivity for FAAH)
T1 construct: with FP-Rh in brain and heart membrane proteome; from tissue; host or cells: brain and heart membrane proteome
T1 sequence (Q8VCT4 19-565): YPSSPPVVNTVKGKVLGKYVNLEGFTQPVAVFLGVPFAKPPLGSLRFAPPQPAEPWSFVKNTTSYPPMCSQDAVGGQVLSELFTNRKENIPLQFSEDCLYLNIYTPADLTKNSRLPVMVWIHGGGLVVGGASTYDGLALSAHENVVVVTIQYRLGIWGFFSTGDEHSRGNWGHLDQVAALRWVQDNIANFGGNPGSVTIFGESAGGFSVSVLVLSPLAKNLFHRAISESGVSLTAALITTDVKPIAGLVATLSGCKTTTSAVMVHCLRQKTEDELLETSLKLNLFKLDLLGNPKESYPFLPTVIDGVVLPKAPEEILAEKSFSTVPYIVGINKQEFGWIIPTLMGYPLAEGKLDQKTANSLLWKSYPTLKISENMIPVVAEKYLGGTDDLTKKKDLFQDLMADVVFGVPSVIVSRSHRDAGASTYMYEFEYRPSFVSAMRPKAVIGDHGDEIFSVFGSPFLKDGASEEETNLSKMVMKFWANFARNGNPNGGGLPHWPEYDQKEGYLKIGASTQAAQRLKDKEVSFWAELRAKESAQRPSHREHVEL
From the text: (§1) Enzyme targets such as FAAH, KIAA1363, and TGH are labeled at the left margin.

[2] = biological target: T2, purified recombinant rat FAAH (Rattus norvegicus, UniProt P97612); assay: FAAH inhibition enzyme assay (14C-oleamide hydrolysis, Dixon plot), rat enzyme
T2 construct: The truncated rat FAAH (rFAAH) was expressed in E. coli and purified as described; made in house; host or cells: Escherichia coli
T2 sequence (P97612 30-579 limits assumed): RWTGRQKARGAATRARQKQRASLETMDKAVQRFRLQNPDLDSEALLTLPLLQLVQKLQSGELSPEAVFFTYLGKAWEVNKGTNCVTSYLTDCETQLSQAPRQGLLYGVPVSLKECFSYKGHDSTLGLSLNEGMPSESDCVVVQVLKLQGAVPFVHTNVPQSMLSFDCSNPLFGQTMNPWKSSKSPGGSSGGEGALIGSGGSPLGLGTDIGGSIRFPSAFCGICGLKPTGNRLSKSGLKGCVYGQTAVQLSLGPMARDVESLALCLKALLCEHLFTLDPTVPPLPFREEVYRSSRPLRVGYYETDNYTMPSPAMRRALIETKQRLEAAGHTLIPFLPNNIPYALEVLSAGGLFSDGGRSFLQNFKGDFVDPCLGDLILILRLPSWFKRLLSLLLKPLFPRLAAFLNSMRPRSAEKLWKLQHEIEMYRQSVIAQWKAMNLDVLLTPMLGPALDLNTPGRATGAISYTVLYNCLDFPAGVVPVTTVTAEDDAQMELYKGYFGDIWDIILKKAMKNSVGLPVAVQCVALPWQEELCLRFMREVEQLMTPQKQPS
From the text: (§2) The purified recombinant rFAAH was used in the inhibition assays unless otherwise indicated.
(§3) The ^14C-labeled oleamide (substrate) and oleic acid (product) were extracted with EtOAc and analyzed by TLC.

KIAA1363 = biological target: T3, KIAA1363 (Mus musculus, UniProt Q8BLF1); assay: Activity based protein profiling (proteome-wide selectivity screening, FP-Rh), KIAA1363; conditions: Table 4; for IC50: activity based protein profiling; for KIAA1363 selectivity (value in parentheses): ratio KIAA1363 IC50 / FAAH IC50 (fold selectivity for FAAH)
T3 construct: with FP-Rh in brain and heart membrane proteome; from tissue; host or cells: brain and heart membrane proteome
T3 sequence (Q8BLF1 1-408): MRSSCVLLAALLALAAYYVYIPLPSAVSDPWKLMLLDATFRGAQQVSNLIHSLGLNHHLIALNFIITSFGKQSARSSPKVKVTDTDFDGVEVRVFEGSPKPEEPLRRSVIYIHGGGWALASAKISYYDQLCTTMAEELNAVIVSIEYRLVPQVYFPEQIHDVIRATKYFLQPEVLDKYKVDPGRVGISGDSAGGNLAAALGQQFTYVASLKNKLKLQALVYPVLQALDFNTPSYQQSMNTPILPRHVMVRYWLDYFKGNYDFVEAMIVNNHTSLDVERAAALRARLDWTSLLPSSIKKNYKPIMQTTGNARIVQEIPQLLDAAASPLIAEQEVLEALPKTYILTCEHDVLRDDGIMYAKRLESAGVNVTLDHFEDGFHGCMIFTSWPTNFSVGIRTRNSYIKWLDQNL
From the text: as §1

FAAH = biological target: T4, FAAH (Mus musculus, UniProt O08914); assay: Activity based protein profiling (proteome-wide selectivity screening, FP-Rh), FAAH; conditions: Table 4
T4 construct: with FP-Rh in brain and heart membrane proteome; from tissue; host or cells: brain and heart membrane proteome
T4 sequence (O08914 1-579): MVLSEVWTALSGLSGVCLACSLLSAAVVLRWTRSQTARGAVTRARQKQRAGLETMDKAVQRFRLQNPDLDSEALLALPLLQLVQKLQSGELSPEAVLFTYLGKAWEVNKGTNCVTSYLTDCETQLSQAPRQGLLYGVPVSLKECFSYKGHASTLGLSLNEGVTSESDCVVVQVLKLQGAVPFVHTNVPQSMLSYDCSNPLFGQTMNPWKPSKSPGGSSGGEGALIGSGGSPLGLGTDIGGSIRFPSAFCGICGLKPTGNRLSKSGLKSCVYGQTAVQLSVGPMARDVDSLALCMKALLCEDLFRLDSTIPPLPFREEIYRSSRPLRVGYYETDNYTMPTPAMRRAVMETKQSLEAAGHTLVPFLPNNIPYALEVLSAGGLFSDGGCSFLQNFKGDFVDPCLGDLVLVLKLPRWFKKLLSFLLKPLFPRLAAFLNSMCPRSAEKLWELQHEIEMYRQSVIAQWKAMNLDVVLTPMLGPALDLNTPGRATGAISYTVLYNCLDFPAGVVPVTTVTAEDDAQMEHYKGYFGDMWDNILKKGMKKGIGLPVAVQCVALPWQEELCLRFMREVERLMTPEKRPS
From the text: as §1

[3] = biological target: T5, recombinant human fatty acid amide hydrolase (Homo sapiens, UniProt O00519); assay: FAAH inhibition enzyme assay, human enzyme (COS-7 lysate); conditions: Table 3
T5 construct: The full-length human FAAH (hFAAH) was expressed in COS-7 cells as described; expressed in transfected cells; host or cells: COS-7
T5 sequence (O00519 1-579): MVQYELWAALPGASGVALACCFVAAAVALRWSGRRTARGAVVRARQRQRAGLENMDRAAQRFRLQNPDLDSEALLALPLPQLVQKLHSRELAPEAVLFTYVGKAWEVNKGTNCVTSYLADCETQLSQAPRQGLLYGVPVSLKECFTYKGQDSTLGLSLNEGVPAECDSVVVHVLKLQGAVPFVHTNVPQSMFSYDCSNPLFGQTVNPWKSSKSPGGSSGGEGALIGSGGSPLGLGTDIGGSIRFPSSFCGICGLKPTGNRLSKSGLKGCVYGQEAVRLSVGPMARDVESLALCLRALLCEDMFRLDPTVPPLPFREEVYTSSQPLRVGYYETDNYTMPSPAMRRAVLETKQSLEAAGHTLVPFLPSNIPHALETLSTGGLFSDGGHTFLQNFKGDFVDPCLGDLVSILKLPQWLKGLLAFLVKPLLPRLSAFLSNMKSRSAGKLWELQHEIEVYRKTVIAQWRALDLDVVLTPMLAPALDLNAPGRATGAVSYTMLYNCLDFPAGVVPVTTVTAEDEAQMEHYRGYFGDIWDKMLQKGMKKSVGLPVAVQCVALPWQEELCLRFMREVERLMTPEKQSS
From the text: as §2, §3

[4] = Table 2, rat FAAH, pH 9 assay conditions, read-out: Ki

SMILES | IC50 [1] [µM] | TGH selectivity (value in parentheses) [1] | Ki [2, 4] [µM] | Ki ([2]; Table 4, read-out: FAAH Ki) [µM] | IC50 (KIAA1363) [µM] | KIAA1363 selectivity (value in parentheses) (KIAA1363) | IC50 (FAAH) [µM] | Ki [3] [µM]
O=C(CCCCCCc1ccccc1)c1ncc(-c2ccco2)o1 [7c] | 0.3 | 4 | 0.012 | 0.012 | > 100 | > 1250 | 0.08 | –
O=C(CCCCCCc1ccccc1)c1ncc(-c2cccs2)o1 [7d] | 0.2 | 0.25 | 0.055 | 0.055 | > 100 | > 125 | 0.8 | –
O=C(CCCCCCc1ccccc1)c1ncc(-c2ccccc2)o1 [7e] | 0.7 | – | – | – | > 100 | – | 0.9 | –
COC(=O)c1cccc(-c2cnc(C(=O)CCCCCCc3ccccc3)o2)n1 [7f] | 1 | – | – | – | 40 | – | 0.17 | –

More lines, now with the values ahead:

IC50 [1] [µM] | TGH selectivity (value in parentheses) [1] | Ki [2, 4] [µM] | Ki ([2]; Table 4, read-out: FAAH Ki) [µM] | IC50 (KIAA1363) [µM] | KIAA1363 selectivity (value in parentheses) (KIAA1363) | IC50 (FAAH) [µM] | Ki [3] [µM] | SMILES
0.025 | 1.5 | 0.001 | 0.001 | > 100 | > 6250 | 0.016 | – | O=C(CCCCCCc1ccccc1)c1nnco1 [8a, 1-(1,3,4-Oxadiazol-2-yl)-7-phenylheptan-1-one]
0.04 | 5 | 0.003 | 0.003 | > 100 | > 12500 | 0.008 | – | COC(=O)c1cccc(-c2nnc(C(=O)CCCCCCc3ccccc3)o2)n1 [8f, Methyl 6-(5-(7-Phenylheptanoyl)-1,3,4-oxadiazol-2-yl)-picolinate]
40 | – | – | – | > 100 | – | – | 0.037 | O=C(O)c1cccc(-c2nnc(C(=O)CCCCCCc3ccccc3)o2)n1 [8g]
0.0007 | 0.18 | 0.001 | 0.001 | 25 | 6250 | 0.004 | – | O=C(CCCCCCc1ccccc1)c1ncno1 [9a, 1-(1,2,4-Oxadiazol-5-yl)-7-phenylheptan-1-one]
0.15 | 50 | 0.003 | 0.003 | 40 | 13000 | 0.003 | – | COC(=O)c1cccc(-c2noc(C(=O)CCCCCCc3ccccc3)n2)n1 [9f, Methyl 6-(5-(7-Phenylheptanoyl)-1,2,4-oxadiazol-3-yl)-picolinate]
